Assay results as given in ChEMBL document CHEMBL1795287, “Efficient synthesis of 3-O-thia-cPA and preliminary analysis of its biological activity toward autotaxin” (Bioorg Med Chem Lett, 2011).

Columns and labels:
Autotaxin (Homo sapiens) [1] = target: Autotaxin (Homo sapiens) (UniProt Q13822); assay: Inhibition of human ATX catalytic activity in MDA-MB-231 cells using conditioned medium at 10 uM; type: cell-based
Autotaxin (Homo sapiens) [2] = target: Autotaxin (Homo sapiens) (UniProt Q13822); assay: Inhibition of human ATX catalytic activity in MDA-MB-231 cells using conditioned medium; type: cell-based

In the case of `CCCCCC/C=C\CCCCCCCC(=O)OCC1COP(=O)(O)C1` (stereo not given), the inhibition (Autotaxin (Homo sapiens) [1]) is reported as 66%.
`CCCCCCCC/C=C\CCCCCCCC(=O)OCC1COP(=O)(O)O1` (stereo not given) showed an inhibition (Autotaxin (Homo sapiens) [1]) of 25%.
With `CCCCCC/C=C\CCCCCCCC(=O)OCC1CSP(=O)(O)O1` (racemic) the inhibition (Autotaxin (Homo sapiens) [1]) was 55% and the inhibition (Autotaxin (Homo sapiens) [2]) was “Dose-dependent effect”.
With `CCCCCCCC/C=C\CCCCCCCC(=O)OCC1CSP(=O)(O)O1` (racemic) the inhibition (Autotaxin (Homo sapiens) [1]) was 55% and the inhibition (Autotaxin (Homo sapiens) [2]) was “Dose-dependent effect”.
With `CCCCCCCCCCCCCCCC(=O)OCC1CSP(=O)(O)O1` (racemic) the inhibition (Autotaxin (Homo sapiens) [1]) was 55% and the inhibition (Autotaxin (Homo sapiens) [2]) was “Dose-dependent effect”.
`CCCCCCCCCCCCCCCCCC(=O)OCC1CSP(=O)(O)O1` (racemic) was tested, and the inhibition (Autotaxin (Homo sapiens) [1]) was 55% and the inhibition (Autotaxin (Homo sapiens) [2]) was “Dose-dependent effect”.
